In US6528049B2, “Bisexual attractants, aggregants and arrestants for adults and larvae of codling moth and other species of lepidoptera” (Trece, Inc., priority 1999, dated 2003):

Tests used:
[1] = test system: codling moth; assay: Trap capture with purified (2E,4E) and (2E,4Z) 2,4-decadienoic acid esters; assay type: in vivo, Cydia pomonella; details: 1 mg dose/gray septum; four orchards; means of 21 trap checks
Protocol: In this study, test compounds were highly purified synthetic samples. The purities of the compounds are expressed as percentages. Individual traps were baited with 1 mg dose/gray septum; five replicate blocks in four orchards; means of 21 total trap checks.

[2] = test system: male codling moth; assay: Pheromone preference paired-trap test: pheromone alone vs pheromone + HPV; assay type: in vivo, Cydia pomonella; details: for % of pheromone-alone capture (line under HPV + Pheromone value) / Male CM Captured, HPV + Pheromone Trap: ± SEM / Male CM Captured, HPV + Pheromone Trap ± SEM / Average % Change in ♂♂ CM Capture: Table 8; for Average % Change in ♂♂ CM Capture: average of four orchards
Excerpt: Interaction of synthetic apple and pear odor blends, described above in Table 2, and their effect on the attractancy of synthetic pheromone to codling moth was also studied. For that purpose, series of paired-traps containing pheromone alone or pheromone in combination with synthetic host plant volatile blends were placed in walnut orchards.
Interaction of individual synthetic host plant volatiles or blends on the attractiveness of synthetic male pheromone to male codling moth administered in paired traps with pheromone alone or with pheromone and attractant 10 mg/red septum was also studied.
Pheromone traps (sticky wing traps, Trécé, Inc.,) were hung as pairs: a pheromone only baited-trap vs. a pheromone+HPV blend-baited trap. The two traps of a test pair were attached in close competitive proximity (120 cm apart) on a common hanger bar (PVC pipe). The paired-trap bars were hung 5-6 meters high on the outer canopies of trees. A single pair-trap was hung per tree and different replicate test trees were separated by five rows in a matrix through the orchard. Each pheromone trap was baited with ½ of a commercial pheromone-impregnated rubber septum (Trécé, Inc.). Septa were sectioned by a razor blade. The HPV blends evaporated from their own separate impregnated rubber septa containing 10 mg diluted in hexane/septum).
Tests were conducted in a Harley English walnut orchard. Tests spanned the entire two year seasons April-October with traps checked, males sexed, counted and removed every 2-7 days. Significant effect on pheromone trap capture were judged by paired tests either T-test or a nonparametric test.

| Structure (SMILES) | MALE CM Captured: ♂♂/trap/night ± SEM [1] | Total CM Captured: CM/trap/night ± SEM [1] [CM/trap/night] | % of pheromone-alone capture (line under HPV + Pheromone value) ([2]; Orchard #1) [%] | Male CM Captured, HPV + Pheromone Trap: ± SEM ([2]; Orchard #1, 10 mg/red septum) | % of pheromone-alone capture (line under HPV + Pheromone value) ([2]; Orchard #2) [%] | Male CM Captured, HPV + Pheromone Trap ± SEM ([2]; Orchard #2, 10 mg/red septum) | % of pheromone-alone capture (line under HPV + Pheromone value) ([2]; Orchard #3) [%] | Male CM Captured, HPV + Pheromone Trap: ± SEM ([2]; Orchard #3, 10 mg/red septum) | % of pheromone-alone capture (line under HPV + Pheromone value) ([2]; Orchard #4) [%] | Male CM Captured, HPV + Pheromone Trap: ± SEM ([2]; Orchard #4, 10 mg/red septum) | Average % Change in ♂♂ CM Capture [2] [%] | FEMALE CM Captured: ♂♂/trap/night ± SEM [1] | % Change (Ph+HPV/Phxl00) in Male CM Capture ([2]; Table 9) [%] | Impact of HPV Blend on Pheromone Attractancy to Male CM ([2]; Table 9) | Male CM Capture with Pheromone + HPV Blend: ♂♂/trap/night ± SEM ([2]; Table 9, 10 mg/red septum) |
| --- | --- | --- | --- | --- | --- | --- | --- | --- | --- | --- | --- | --- | --- | --- | --- |
| CCCCC/C=C\C=C\C(=O)OCC [Ethyl (2E,4Z)-2,4-Decadienoate, #2 (88.5%)] | 1.89 ± 0.79 ♂♂/trap/night | 4.25 ± 1.43 |  |  |  |  |  |  |  |  |  |  |  |  |  |
| CCCCO [Butan-1-ol] |  |  | 101 | 0.74 ± 0.17 ♂♂/trap/night | 117 | 2.73 ± 0.56 ♂♂/trap/night | 122 | 2.95 ± 0.43 ♂♂/trap/night | 96 | 2.96 ± 0.62 ♂♂/trap/night | 109 |  |  |  |  |
| CCCCC/C=C/C=C/C(=O)OCCC [n-Propyl (2E,4E)-2,4-Decadienoate] | 0.17 ± 0.13 ♂♂/trap/night | 0.36 ± 0.19 |  |  |  |  |  |  |  |  |  | 0.19 ± 0.07 ♀♀/trap/night |  |  |  |
| C=C1CCC2CC1C2(C)C (stereo not drawn) [β-Pinene] |  |  | 61 | 0.75 ± 0.50 ♂♂/trap/night | 63 | 1.25 ± 0.29 ♂♂/trap/night | 130 | 3.37 ± 0.53 ♂♂/trap/night | 112 | 4.95 ± 0.76 ♂♂/trap/night | 92 |  |  |  |  |
| CCCCC/C=C\C=C\C(=O)OCCCCCC [Hexyl (2E,4Z)-2,4-Decadienoate (100%), Hexyl (2E,4Z)-2,4-Decadienoate] | 0.01 ± 0.01 ♂♂/trap/night | 0.02 ± 0.02 |  |  |  |  |  |  |  |  |  | 0.02 ♀♀/trap/night |  |  |  |
| CC(C)CCO [3-Methyl Butan-1-ol] |  |  | 118 | 1.29 ± 0.25 ♂♂/trap/night | 86 | 1.19 ± 0.22 ♂♂/trap/night | 95 | 2.82 ± 0.56 ♂♂/trap/night | 115 | 2.91 ± 0.49 ♂♂/trap/night | 104 |  |  |  |  |
| CC1=CCC(C(C)C)=CC1 [gamma-Terpinene] |  |  |  |  |  |  |  |  |  |  |  |  | 93 | No Effect | 0.88 ± 0.28 ♂♂/trap/night |
| CCCCC/C=C\C=C\C(=O)OCC [Ethyl (2E,4Z)-2,4-Decadienoate, #1 (95.3%)] | 1.67 ± 0.41 ♂♂/trap/night | 4.49 ± 1.29 |  |  |  |  |  |  |  |  |  |  |  |  |  |
| Cc1ccc(C(C)C)cc1 [para-Cymene] |  |  | 117 | 0.92 ± 0.20 ♂♂/trap/night | 102 | 1.39 ± 0.38 ♂♂/trap/night | 108 | 4.76 ± 0.82 ♂♂/trap/night | 136 | 4.27 ± 0.71 ♂♂/trap/night | 116 |  |  |  |  |
